# “Also recorded” adds a separate entry of the source.
# Key:
# Test in all cases: Minimum inhibitory / bactericidal concentration (MIC/MBC) test, 96-well serial dilution
# [1] = test system: E. Coli J53pMG101 (silver resistant); type: cell-based, Escherichia coli; conditions: up to 1000 μg/ml
# Protocol: (§1) A minimum inhibitory concentration (MIC) test was conducted to measure the efficiency of certain silver-based antimicrobials against each bacterial isolate. A sterile round-bottom plastic 96-well plate containing […] of serially 1:2 diluted concentrations of antimicrobial solutions was inoculated with […] of 5-8×10^5 CFU/ml of each bacterial isolate. Each antimicrobial sample was tested at 15 serially diluted concentrations starting at their original highest concentration (0.015-1000 μg/ml).
# (§2) After 24 h of incubation, 10 μl of the suspension from all of the clear wells (showing no bacterial growth) was dropped onto a MH agar plate and incubated for 24 h.
# The mass concentration of these nanoparticles dispersed in water was 1.0 mg/mL The Silvadur ET solution containing 2.6-3.1 wt % silver ions was used at its original concentration (1.0 mg/mL). Silver nitrate was also dissolved in distilled water to create a 1 mg/mL solution. A gram negative (Escherichia coli J53) and gram positive (staphylococcus aureus—a common bacteria to cause skin infections) bacteria were employed for the experiment. Cation-adjusted Mueller-Hinton (MH) broth and agar (Difco Laboratories, Detroit, Mich., USA) were utilized to prepare bacterial cultivating medium. Isolated bacterial colonies were grown overnight in an incubator (37° C., 5% CO2) from frozen samples on an agar plate. […]
# Staphylococcus aureus = type: cell-based; conditions: n=6
# Protocol: as §1, §2
# (§3) The mass concentration of these nanoparticles dispersed in water was 1.0 mg/mL The Silvadur ET solution containing 2.6-3.1 wt % silver ions was used at its original concentration (1.0 mg/mL). Silver nitrate was also dissolved in distilled water to create a 1 mg/mL solution. A gram negative (Escherichia coli J53) and gram positive (staphylococcus aureus—a common bacteria to cause skin infections) bacteria were employed for the experiment. Cation-adjusted Mueller-Hinton (MH) broth and agar (Difco Laboratories, Detroit, Mich., USA) were utilized to prepare bacterial cultivating medium. Isolated bacterial colonies were grown overnight in an incubator (37° C., 5% CO2) from frozen samples on an agar plate. For Agresistant bacteria (E. coli J53 [pMG101]), […] ampicillin sodium salt (Fisher Scientific, USA) was also added to the agar plates. The bacterial colony was suspended in phosphate buffered saline (PBS) to obtain 0.5 McFarland (10^5 CFU/ml). Microplates were incubated at 37° C. and shaken at 200 rpm for 24 hours. To control the accuracy of bacterial seeding density, bacteria were diluted in PBS at 103, 104, 105, and 106 and cultured overnight.
# (§4) A gram negative (Escherichia coli J53) and gram positive (staphylococcusaureus, a common bacteria that causes skin infections) bacteria were employed for the experiment. Cation-adjusted Mueller-Hinton (MH) broth and agar (Difco Laboratories, Detroit, Mich., USA) were used to prepare bacterial cultivating medium. Isolated bacterial colonies were grown overnight in an incubator (37° C., 5% CO2) from frozen samples on an agar plate. For Ag-resistant bacteria (E. coli J53 [pMG101]) […] ampicillin sodium salt (Fisher Scientific, USA) was also added to the agar plates. The bacterial colony was suspended in phosphate buffered saline (PBS) to get 0.5 McFarland (10^5 CFU/ml). Microplates were incubated at 37° C. and shaken at 200 rpm for 24 h. To control the accuracy of bacterial seeding density, bacteria were diluted in PBS at 10^3, 10^4, 10^5, and 10^6 and plated overnight.
# as §1, with “The minimum” for “A minimum”, “of silver based” for “of certain silver-based”, “μg/ml). […] After 24 h of incubation, 10 μl of the suspension from all of the clear wells (showing no bacterial growth) was dropped onto a MH agar plate and incubated for 24 h.” for “μg/ml).”
# Escherichia coli J53 = type: cell-based; conditions: n=6
# Protocol: as §1, §2, §3, §4
# as §1, with “The minimum” for “A minimum”, “of silver based” for “of certain silver-based”, “μg/ml). […] After 24 h of incubation, 10 μl of the suspension from all of the clear wells (showing no bacterial growth) was dropped onto a MH agar plate and incubated for 24 h.” for “μg/ml).”
# [2] = Table 1, Example 1, 24 h incubation
compound,measurement,setting,value
O=[N+]([O-])[O-].[Ag+] [Silver nitrate],Observation of silver resistant E. coli J53 (pMG101) in the presence of the antimicrobial,[1],confirmed the resistance of E. coli J53 to silver; also recorded: confirmed its resistance to silver
same,Minimum Inhibitory Concentrations (MIC) Staphylococcus aureus,Staphylococcus aureus; [2],15.62 µg/mL
same,Minimum Bacterial Concentrations (MBC) Staphylococcus aureus,"Staphylococcus aureus; Table 2, Example 1",31.25 µg/mL
same,Minimum Inhibitory Concentrations (MIC) Staphylococcus aureus,"Staphylococcus aureus; Table 9, Example 4",15.62 µg/mL
same,Minimum Bacterial Concentrations (MBC) Staphylococcus aureus,"Staphylococcus aureus; Table 10, Example 4",31.25 µg/mL
same,Minimum Inhibitory Concentrations (MIC) Escherichia coli J53,Escherichia coli J53; [2],7.81 µg/mL
same,Minimum Bacterial Concentrations (MBC) Escherichia coli J53,"Escherichia coli J53; Table 2, Example 1",15.62 µg/mL
same,Minimum Inhibitory Concentrations (MIC) Escherichia coli J53,"Escherichia coli J53; Table 9, Example 4",7.81 µg/mL
same,Minimum Bacterial Concentrations (MBC) Escherichia coli J53,"Escherichia coli J53; Table 10, Example 4",15.62 µg/mL

# Reference: patent US20150290354A1, “NONWOVEN FIBER MATERIALS” (NORTH CAROLINA STATE UNIVERSITY, priority 2012, published 2015)
